Assay results published in ChEMBL document CHEMBL5233217, “Modification of 7-piperazinylquinolone antibacterials to promising anticancer lead compounds: Synthesis and in vitro studies” (Eur J Med Chem, 2020).

What was measured:
Type in all cases: functional, cell-based
[1] = tested on: SK-MEL3; test: Anticancer activity against human SK-MEL3 cells assessed as reduction in cell viability incubated for 72 hrs by MTT assay; details: SK-MEL3, 72 h
[2] = tested on: MCF7; test: Anticancer activity against human MCF7 cells assessed as reduction in cell viability incubated for 72 hrs by MTT assay; details: MCF7, 72 h
[3] = tested on: A-431; test: Anticancer activity against human A-431 cells assessed as reduction in cell viability incubated for 72 hrs by MTT assay; details: A-431, 72 h
[4] = tested on: EJ; test: Anticancer activity against human EJ cells assessed as reduction in cell viability incubated for 72 hrs by MTT assay
[5] = tested on: KB; test: Anticancer activity against human KB cells assessed as reduction in cell viability incubated for 72 hrs by MTT assay
[6] = tested on: SW480; test: Anticancer activity against human SW480 cells assessed as reduction in cell viability incubated for 72 hrs by MTT assay; details: SW480, 72 h
[7] = tested on: A549; test: Anticancer activity against human A549 cells assessed as reduction in cell viability incubated for 72 hrs by MTT assay; details: A549, 72 h
[8] = tested on: HL-60; test: Anticancer activity against human HL-60 cells assessed as reduction in cell viability incubated for 72 hrs by MTT assay; details: HL-60, 72 h
[9] = tested on: HeLa; test: Anticancer activity against human HeLa cells assessed as reduction in cell viability incubated for 72 hrs by MTT assay

Structure (SMILES) | IC50 [1] [µM] | IC50 [2] [µM] | IC50 [3] [µM] | IC50 [5] [µM] | IC50 [6] [µM] | IC50 [7] [µM] | IC50 [8] [µM] | IC50 [9] [µM] | IC50 [4] [µM]
O=C(CN1CCN(c2cc3c(cc2F)c(=O)c(C(=O)O)cn3C2CC2)CC1)c1ccc(Cl)s1 | < 10 | < 10 | < 10 | < 10 | < 10 | – | – | – | < 10
CCn1cc(C(=O)O)c(=O)c2cc(F)c(N3CCN(C/C(=N/O)c4ccc(Cl)s4)CC3)nc21 | < 10 | < 10 | < 10 | < 10 | < 10 | – | – | – | < 10
CCn1cc(C(=O)O)c(=O)c2cc(F)c(N3CCN(C/C(=N/O)c4ccc(Cl)s4)CC3)cc21 | < 10 | < 10 | < 10 | < 10 | < 10 | – | – | – | < 10
CCn1cc(C(=O)O)c(=O)c2cc(F)c(N3CCN(C/C(=N/OC)c4ccc(Cl)s4)CC3)nc21 | < 10 | < 10 | < 10 | < 10 | < 10 | – | – | – | < 10
CCn1cc(C(=O)O)c(=O)c2cc(F)c(N3CCN(C(=N)NS(=O)(=O)c4ccc(C)cc4)CC3)cc21 | – | – | – | – | – | 0.071 | 0.043 | 0.032 | –
CCn1cc(C(=O)O)c(=O)c2cc(F)c(N3CCN(C(=N)NS(=O)(=O)c4ccc(Cl)cc4)CC3)cc21 | – | – | – | – | – | 0.071 | 0.043 | 0.032 | –
O=C(O)c1cn(C2CC2)c2cc(N3CCN(C/C(=N/OCc4ccccc4)c4ccc(Cl)s4)CC3)c(F)cc2c1=O | < 10 | < 10 | < 10 | < 10 | < 10 | – | – | – | < 10
O=C(O)c1cn(C2CC2)c2cc(N3CCN(C/C(=N/O)c4ccc(Cl)s4)CC3)c(F)cc2c1=O | < 10 | < 10 | < 10 | < 10 | < 10 | – | – | – | < 10

Now from value to compound, other results behind:

IC50 [1] [µM] | IC50 [2] [µM] | IC50 [3] [µM] | IC50 [5] [µM] | IC50 [6] [µM] | IC50 [7] [µM] | IC50 [8] [µM] | IC50 [9] [µM] | Structure (SMILES) | IC50 [4] [µM]
– | – | – | – | – | 0.071 | 0.043 | 0.032 | CCn1cc(C(=O)O)c(=O)c2cc(F)c(N3CCN(C(=N)NS(=O)(=O)c4ccccc4Cl)CC3)cc21 | –
– | – | – | – | – | 0.071 | 0.043 | 0.032 | N=C(NS(=O)(=O)c1ccc(C(F)(F)F)cc1)N1CCN(c2cc3c(cc2F)c(=O)c(C(=O)O)cn3C2CC2)CC1 | –
– | – | – | – | – | 0.071 | 0.043 | 0.032 | N=C(NS(=O)(=O)c1ccc(Cl)cc1)N1CCN(c2cc3c(cc2F)c(=O)c(C(=O)O)cn3C2CC2)CC1 | –
– | – | – | – | – | 0.071 | 0.043 | 0.032 | CCn1cc(C(=O)O)c(=O)c2cc(F)c(N3CCN(C(=N)NS(=O)(=O)c4cccc(Cl)c4)CC3)cc21 | –
– | – | – | – | – | 0.071 | 0.043 | 0.032 | CCn1cc(C(=O)O)c(=O)c2cc(F)c(N3CCN(C(=N)NS(=O)(=O)c4ccccc4)CC3)cc21 | –
– | – | – | – | – | 0.071 | 0.043 | 0.032 | CCn1cc(C(=O)O)c(=O)c2cc(F)c(N3CCN(C(=N)NS(=O)(=O)c4ccc(C(F)(F)F)cc4)CC3)cc21 | –
– | – | – | – | – | 0.071 | 0.043 | 0.032 | Cc1ccc(S(=O)(=O)NC(=N)N2CCN(c3cc4c(cc3F)c(=O)c(C(=O)O)cn4C3CC3)CC2)cc1 | –
– | – | – | – | – | 0.071 | 0.043 | 0.032 | N=C(NS(=O)(=O)c1cccc(Cl)c1)N1CCN(c2cc3c(cc2F)c(=O)c(C(=O)O)cn3C2CC2)CC1 | –
– | – | – | – | – | 0.071 | 0.043 | 0.032 | CCn1cc(C(=O)O)c(=O)c2cc(F)c(N3CCN(C(=N)NS(=O)(=O)c4ccccc4C(F)(F)F)CC3)cc21 | –
– | – | – | – | – | 0.071 | 0.043 | 0.032 | N=C(NS(=O)(=O)c1ccccc1C(F)(F)F)N1CCN(c2cc3c(cc2F)c(=O)c(C(=O)O)cn3C2CC2)CC1 | –
– | – | – | – | – | 0.071 | 0.043 | 0.032 | N=C(NS(=O)(=O)c1ccccc1)N1CCN(c2cc3c(cc2F)c(=O)c(C(=O)O)cn3C2CC2)CC1 | –
– | – | – | – | – | 0.071 | 0.043 | 0.032 | N=C(NS(=O)(=O)c1ccccc1Cl)N1CCN(c2cc3c(cc2F)c(=O)c(C(=O)O)cn3C2CC2)CC1 | –
